Source: article PMC9653409, “Generative deep learning enables the discovery of a potent and selective RIPK1 inhibitor” (Nature Communications, 2022)
pEC50, pIC50: −log10 of the molar value.

Tests used:
RIPK1 = target: T1, RIPK1 (Homo sapiens, UniProt Q13546); assay: RIPK1 kinase assay, ADP-Glo assay; type: biochemical
T1 sequence (Q13546 1-671): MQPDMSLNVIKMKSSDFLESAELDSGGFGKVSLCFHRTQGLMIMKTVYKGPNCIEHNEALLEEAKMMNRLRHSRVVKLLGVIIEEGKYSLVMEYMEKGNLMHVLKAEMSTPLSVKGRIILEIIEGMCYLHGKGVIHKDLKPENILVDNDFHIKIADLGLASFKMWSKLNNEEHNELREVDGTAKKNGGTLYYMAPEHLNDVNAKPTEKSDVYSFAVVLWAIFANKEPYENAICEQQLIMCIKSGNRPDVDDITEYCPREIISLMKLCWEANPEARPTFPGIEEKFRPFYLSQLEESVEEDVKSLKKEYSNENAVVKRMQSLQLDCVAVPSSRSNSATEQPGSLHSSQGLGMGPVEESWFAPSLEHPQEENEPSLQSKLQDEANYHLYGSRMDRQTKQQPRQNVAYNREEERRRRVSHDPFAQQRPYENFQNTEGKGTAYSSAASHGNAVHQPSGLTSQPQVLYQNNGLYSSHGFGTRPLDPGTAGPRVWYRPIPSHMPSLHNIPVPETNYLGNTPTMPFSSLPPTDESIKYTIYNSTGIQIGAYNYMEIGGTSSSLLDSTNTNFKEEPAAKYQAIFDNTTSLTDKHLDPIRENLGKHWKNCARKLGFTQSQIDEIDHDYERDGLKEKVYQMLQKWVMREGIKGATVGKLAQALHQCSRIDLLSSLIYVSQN

U937 cells = assay: TSZ-induced U937 cell necroptosis model (CCK8); type: cell-based; conditions: Homo sapiens, U-937
Description: Cell necroptosis protection assays were performed in 96-well cell culture plates. Cells were plated in each well and cultured at 37 °C overnight. […] The cell survival rate was determined using a CCK8 cell viability assay kit and CLARIOstar (v5.61). […] All experiments were performed at least two times, and each EC50 value was expressed as mean ± standard deviation (SD).

**Q.** What does the source list for `CC(C)C(=O)Nc1nc2cc(-c3ccc4c(c3)c(C(=O)NC(C)c3ccccc3)cn4C)ccn2n1` (centres unmarked) [RI-962]?
**A.** inhibition at 0.000152416 µM (RIPK1; 0.152416 nM): -7.04%; inhibition at 0.000457247 µM (RIPK1; 0.457247 nM): -2.09%; inhibition at 0.00137174 µM (RIPK1; 1.371742 nM): 5.59%; inhibition at 0.00411523 µM (RIPK1; 4.115226 nM): 34.1%; inhibition at 0.0123457 µM (RIPK1; 12.345679 nM): 80%; inhibition at 0.037037 µM (RIPK1; 37.037037 nM): 94%; inhibition at 0.111111 µM (RIPK1; 111.111111 nM): 95.3%; inhibition at 0.333333 µM (RIPK1; 333.333333 nM): 96.3%; inhibition at 1 µM (RIPK1; 1000.000000 nM): 98.1%; inhibition at 3 µM (RIPK1; 3000.000000 nM): 99.3%; pIC50 (RIPK1; ADP-Glo assay): 8.23; viability at 56 pM (U937 cells; 0.000056 μM): 1.42%; viability at 0.000169 µM (U937 cells; 0.000169 μM): 0.727%; viability at 0.000508 µM (U937 cells; 0.000508 μM): 0.579%; viability at 0.001524 µM (U937 cells; 0.001524 μM): 2.66%; viability at 0.004572 µM (U937 cells; 0.004572 μM): 8.5%; viability at 0.013717 µM (U937 cells; 0.013717 μM): 37.9%; viability at 0.041152 µM (U937 cells; 0.041152 μM): 78%; viability at 0.123457 µM (U937 cells; 0.123457 μM): 84.5%; viability at 0.37037 µM (U937 cells; 0.370370 μM): 96.7%; viability at 1.11111 µM (U937 cells; 1.111111 μM): 96.2%; viability at 3.33333 µM (U937 cells; 3.333333 μM): 90.4%; pEC50 (U937 cells; U937 treated with TSZ, 24 h): 7.75
